Legend:
Per1 gene = experiment: expression of clock genes in liver of mouse given corticosterone (quantitative real time RT-PCR); type: in vivo
Method: This example is intended to investigate the amount of expression of Per1 in a mouse which was given corticosterone.
A mouse was given a prescribed amount of corticosterone, and one hour later, it had its liver extracted. The collected liver was homogenized for quantitative real time RT-PCR in the same way as in Example 2, and the amount of expression of clock genes was determined.
The abscissa represents the dosage (mg/kg) of corticosterone per 1 kg of the mouse's weight. “PBS” denotes the control which was given a phosphate buffer solution in place of corticosterone. “fold induction” on the ordinate represents the amount of expression of Per1 gene (in terms of a relative value, with the value for PBS being 1).
The abscissa represents each clock gene. “fold induction” on the ordinate represents the amount of expression of each clock gene in terms of a relative value, with the value for PBS being 1.

[1] = system: promoter region of Per1 gene; experiment: luciferase assay of Per1 promoter constructs in NIH3T3 cells with dexamethazone; type: cell-based; details: dexamethazone 0.1 μM, 36 hours after transfection
Method: The second step was luciferase assay to investigate what part of the promoter region of Per1 is associated with stress response.
Luciferase is an enzyme protein that catalyzes bioluminescence. It can be used to estimate the level at which the expression of a specific gene is induced in the following manner. First, a recombinant gene is prepared in which the promoter region of a specific gene is joined to a gene that codes luciferase. Second, the recombinant gene is incorporated into cultured cells. Third, the gene is allowed to express so that the luciferase is allowed to express. Fourth, the intensity of bioluminescence due to luciferase is determined to obtain the level at which luciferase expresses.
An experiment was carried out based on the foregoing principle. It involves preparation of several kinds of DNA differing in the length of the promoter region of Per1 and determination of the expression level of Per1 in the presence of dexamethazone. […] Incidentally, dexamethazone is synthetic glucocorticoid. It is known that the amount of glucocorticoid in blood increases when a living organism experiences stress.
The procedure of the experiment is outlined below. • (1) The first step is to prepare DNAs (P1F, P1K, and P1S), the first one having the entire length of the promoter region of Per1 gene and the second and third ones having the partial length of the promoter region of Per1 gene, with the upstream side cut off. […] The subcultured cells are collected and dissolved 36 hours after transfection. • (4) The fourth step is to prepare a solution from the dissolved cells and measurement of the luminescence intensity by means of Dual Luciferase Assay System (from Promega). […]
FIG. 4C is a graph showing the results of luciferase assay. The abscissa (Relative Luciferase Activity) represents the intensity of luminescence in terms of relative value (%) compared with the intensity of luminescence assigned as 100 of the cultured cells incorporated with the entire length of the promoter region of Per1 gene.
“P1F” denotes the intensity of luminescence from cultured cells incorporated with the entire length of the promoter region of Per1 gene. “P1K” denotes the intensity of luminescence from cultured cells incorporated with the partial length of 3806 bases upstream from the transcription starting region of Per1 gene. “P1S” denotes the intensity of luminescence from cultured cells incorporated with the partial length of 2369 bases upstream from the transcription starting region of Per1 gene. “Vector” denotes the intensity of luminescence from cultured cells (control) incorporated with a blank vector. […] “Dex” and “EtOH” respectively denote the intensity of luminescence from a sample containing dexamethazone and a sample (control) containing ethanol. […]

[2] = biological target: glucocorticoid receptor (GR) joining to GRE resembling sequence of Per1 gene (Mus musculus, UniProt P06537); details: NIH3T3 cells, 1 hr after treatment with dexamethazone, anti-GR antibody
glucocorticoid receptor (GR) joining to GRE resembling sequence of Per1 gene, sequence (P06537 whole entry): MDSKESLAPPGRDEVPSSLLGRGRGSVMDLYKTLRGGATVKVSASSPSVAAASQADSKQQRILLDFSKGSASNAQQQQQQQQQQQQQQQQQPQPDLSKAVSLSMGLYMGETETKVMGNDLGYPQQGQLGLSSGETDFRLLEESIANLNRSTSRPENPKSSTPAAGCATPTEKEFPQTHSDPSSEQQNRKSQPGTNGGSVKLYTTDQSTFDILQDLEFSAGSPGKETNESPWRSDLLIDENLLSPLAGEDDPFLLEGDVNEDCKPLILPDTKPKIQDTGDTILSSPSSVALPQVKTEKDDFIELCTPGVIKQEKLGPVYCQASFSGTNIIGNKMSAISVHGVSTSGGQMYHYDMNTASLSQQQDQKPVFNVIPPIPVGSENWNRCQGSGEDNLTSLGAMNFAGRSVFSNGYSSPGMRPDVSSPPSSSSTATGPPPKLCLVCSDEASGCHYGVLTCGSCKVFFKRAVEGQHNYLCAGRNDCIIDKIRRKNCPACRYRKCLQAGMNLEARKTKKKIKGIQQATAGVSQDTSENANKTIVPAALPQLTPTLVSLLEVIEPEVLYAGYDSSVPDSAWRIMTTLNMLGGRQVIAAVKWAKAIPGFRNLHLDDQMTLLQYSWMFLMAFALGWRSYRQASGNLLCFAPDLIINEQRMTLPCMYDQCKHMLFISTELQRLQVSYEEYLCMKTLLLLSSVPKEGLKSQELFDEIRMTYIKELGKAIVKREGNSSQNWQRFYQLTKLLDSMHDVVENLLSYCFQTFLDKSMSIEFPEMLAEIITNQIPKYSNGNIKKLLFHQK
Method: First, NIH3T3 cells were treated with dexamethazone to induce the expression of mPer1 gene. The cells were given formaldehyde to fix the binding of protein and chromatin DNA. The chromatin DNA was fragmented by sonication and the resulting fragments underwent immunoprecipitation with anti-GR antibody. The resulting precipitates (as a composite of anti-GR antibody, GR, and chromatin DNA joining to GR) were recovered. The recovered precipitates were heated to remove the DNA-protein crosslinking. The desired sequence was amplified by PCR and the PCR product was identified by electrophoresis.
In other words, the primer was so designed as to specifically amplify the region near the two GRE resembling sequences.
In FIG. 5B, “IP: α-GR” indicates the desired sequence detected by semi-quantitative RT-PCR after immunoprecipitation by means of anti-GR antibody. “IP: αa-normal rabbit IgG” indicates the sequence (control) detected from immunoprecipitation by means of rabbit IgG. In addition, “input” indicates the desired sequence (control) detected by semi-quantitative RT-PCR without immunoprecipitation. “ChIP primer” in the lowermost row indicates the sequence of the primer used for semi-quantitative RT-PCR or the desired sequence which has been amplified. […]

SMILES	amount of expression of each clock gene (fold induction, PBS being 1) (Per1 gene; one hour after corticosterone 10 mg/kg, FIG. 7B)	amount of expression of Per1 gene (fold induction, PBS being 1) versus dosage (Per1 gene; one hour after corticosterone, dosage in mg/kg, FIG. 7A)	intensity of luminescence, P1FpM ([1]; P1F with GRE resembling sequence mutated in its downstream, FIG. 4D)	intensity of luminescence, P1FdM ([1]; P1F with GRE resembling sequence mutated in its upstream, FIG. 4D)	Relative Luciferase Activity (intensity of luminescence), P1K ([1]; P1K promoter (3806 bases upstream, two GRE resembling sequences), vs EtOH, FIG. 4C)	Relative Luciferase Activity (intensity of luminescence), P1S ([1]; P1S promoter (2369 bases upstream, one GRE resembling sequence), vs EtOH, FIG. 4C)	detection of dGRE and pGRE sequences by semi-quantitative RT-PCR after immunoprecipitation ([2]; FIG. 5B)	amount of dGRE and pGRE DNA amplified (%input) by quantitative real time RT-PCR after immunoprecipitation ([2]; FIG. 5C)
C[C@]12C[C@H](O)[C@H]3[C@@H](CCC4=CC(=O)CC[C@@]43C)[C@@H]1CC[C@@H]2C(=O)CO [corticosterone]	increases the amount of expression of only Per1 gene among clock genes	increases as the dosage of corticosterone increases	–	–	–	–	–	–
C[C@@H]1C[C@H]2[C@@H]3CCC4=CC(=O)C=C[C@]4(C)[C@@]3(F)[C@@H](O)C[C@]2(C)[C@@]1(O)C(=O)CO [dexamethazone]	–	–	high intensity of luminescence	a little lower intensity of luminescence	high intensity of luminance	certain intensity of luminance	the desired band was detected	greatly amplifies

From US20070099217A1, “Method for stress evaluation” (priority 2005, published 2007)
